In patent US11717528B2, “Methods and compositions relating to the treatment of fibrosis” (BROWN UNIVERSITY, priority 2017, dated 2023):
“Also recorded” adds a separate entry of the source.

Tests used:
recombinant Chit1 = recombinant Chit1 (Homo sapiens, UniProt Q13231); assay: Chit1 inhibitor screen and dose-response validation; assay type: biochemical; settings: for ability to inhibit Chit1 (chitotriosidase) activity: among aminoglycoside antibiotics (FIG. 1)
Method: FIG. 4 depicts dose-response validation of inhibitory activities of kasuagmycin on Chit1 activities
Chit1 is a biomarker and therapeutic target of SSc-ILD, as well as plahing a significant role in bleomycin- and IL-13-induced pulmonary fibrosis. In order to discover new therapeutic approaches for fibrotic diseases, we screened for inhibitors of Chit1, using pentoxifylline as a positive control. The results of the screen were expressed as a % of the inhibitory activity of 200 uM of pentoxifylline. This assay identified 51 compounds that have more than 45% of inhibition (compared to 200 μM pentoxifylline). One of the compounds so identified was kasugamycin.
(§1) The results were validated by measuring dose-response (FIG. 4). Assay conditions were 0.33 nM of recombinant Chit1, 1 μM of test compound, 4 μM of substrate, 30 min incubation at room temperature.

[1] = tested on: bleomycin-induced pulmonary fibrosis; assay: bleomycin I.P. model of pulmonary fibrosis, kasugamycin I.P.; assay type: in vivo, C57 BL/6 mice; settings: for pulmonary fibrosis / total lung collagen: bleomycin 25 Unit/kg daily for 6 days, kasugamycin 50 mg/Kg I.P. every other day, 7 doses, Sircol
Method: FIG. 2 depicts a schematic of experiments described herein, using a method reported by Inomata et al (Respiratory Research, 2014, 15:16) that was used for therapeutic efficacy of pirifenidone with minor modification. 8 Week old C57 BL/6 mice were used for the evaluation. Bleomycin (25 Unit/kg) was given daily for 6 days. Seven days after the last bleomycin challenge, Kasugamycin (50 mg/Kg) or PBS were delivered every other day via I.P. injection. The mice received a total of 7 doses of Kasugamycin. The mice were sacrificed a day after the last injection of Kasugamycin.
FIG. 3A depicts the results of a lung collagen assay by Sircol. FIG. 3B depicts results of RT-PCR assay of selected extracellular matrix genes on lung lysate *p<0.05, **p<0.01 by ANOVA evaluation, Bleo, bleomycin; KSM, kasugamycin.
The therapeutic window of kasugamycin was investigated using the method described in Inomata et al (Respiratory Research 2014 15:16) that was used to establish the therapeutic efficacy of pirifendidone, with minor modifications. Briefly, 8 week old C57 BL/6 mice were used for the evaluation. Bleomycin (25 Unit/kg) was given daily for 6 days. Seven days after the last bleomycin challenge, kasugamycin (50 mg/Kg) or PBS were delivered every other day via I.P. injection. The mice received a total of 7 doses of kasugamycin. The mice were sacrificed a day after the last injection of kasugamycin (FIG. 2).

[2] = tested on: bleomycin-induced pulmonary fibrosis; assay: bleomycin I.T. model of pulmonary fibrosis; assay type: in vivo, mice; settings: bleomycin I.T. model (FIG. 9)
Method: FIG. 5 depicts schematic diagrams of in vivo validation of antifibrotic effect of Chit1 inhibitors using bleomycin models of pulmonary fibrosis
FIG. 9 depicts BAL cell recovery and total lung coallagen with and without Kasugamycin treatment (I.T. Model)
as §1

[3] = tested on: TGFβ1-stimulated inflammation and fibrosis; assay: transgenic TGFβ1-stimulated inflammation and fibrosis; assay type: in vivo, TGFβ1 transgenic mice; settings: for fibrosis: transgenic TGFβ1 stimulation (FIG. 10, 11)
Method: FIG. 10 depicts graphs of the effect of Kasugamycin on transgenic TGFβ1-stimulated inflammation and fibrosis
FIG. 11 depicts the effect of kasugamycin on TGFβ1-stimulated fibrosis. In this figure WT=wild type mice; TG=TGFβ1 transgenic mice.
as §1

[4] = tested on: fibrosis (collagen accumulation); assay: bleomycin-treated Hermansky-Pudlak syndrome mice; assay type: in vivo, HPS-1 null mice (pale ear mice); settings: bleomycin IP 5 consecutive days, kasugamycin 50 mg/kg qod from day 12
Method: FIG. 12A depicts a schematic illustration of the experiemental procedure. Bleomycin was given IP for 5 consecutive days followed by kasugamycin at 50 mg/kg qod for 7 days starting on day 12. FIG. 12B depicts a graph of the effects on fibrosis (collagen accumulation).

[5] = tested on: bleomycin-induced pulmonary fibrosis; assay: kasugamycin by gavage in the bleomycin IP model; assay type: in vivo, WT C57BL/6 mice; settings: kasugamycin 50, 100 or 500 mg/kg by gavage everyday
Method: FIGS. 13A-13B depict the effect of kasugamycin when given by gavage in the bleomycin IP model. FIG. 13A depicts a schematic illustration of the experimental procedure. Pulmonary fibrosis was induced in WT C57BL/6 mice by injecting bleomycin 6 times intra-peritoneal (IP) injection (25 unit/kg) daily (day 1-6). Units/injection—100 uL of 6 U/mL bleomycin solution (0.6 unit/injection). Kasugamycin was then administered at 50 mg/kg, 100 mg/kg, or 500 mg/kg, gavage everyday. FIG. 13B depicts a graph of the effects on collagen count. The x-axis specifies the dose of kasugamcyin used.

[6] = cited from earlier work

recombinant Chit1, sequence (Q13231 22-466, species assumed): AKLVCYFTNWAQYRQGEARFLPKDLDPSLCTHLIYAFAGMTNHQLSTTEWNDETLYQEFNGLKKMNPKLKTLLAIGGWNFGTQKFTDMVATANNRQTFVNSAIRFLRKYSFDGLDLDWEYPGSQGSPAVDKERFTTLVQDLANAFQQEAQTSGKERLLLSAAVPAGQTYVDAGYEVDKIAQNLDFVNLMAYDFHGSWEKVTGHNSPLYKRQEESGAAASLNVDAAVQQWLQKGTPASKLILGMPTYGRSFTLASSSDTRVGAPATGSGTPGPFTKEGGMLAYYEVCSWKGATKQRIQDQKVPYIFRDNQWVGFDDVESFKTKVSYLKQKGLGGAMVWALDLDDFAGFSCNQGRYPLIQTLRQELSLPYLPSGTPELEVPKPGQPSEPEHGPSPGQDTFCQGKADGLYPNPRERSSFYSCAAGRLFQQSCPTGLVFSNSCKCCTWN

With `C[C@H]1O[C@H](O[C@H]2[C@H](O)[C@@H](O)[C@@H](O)[C@H](O)[C@@H]2O)[C@@H](N)C[C@@H]1NC(=N)C(=O)O` [kasugamycin, 2-amino-2-[(2R,3S,5S,6R)-5-amino-2-methyl-6-[(2R,3S,5S,6S)-2,3,4,5,6-pentahydroxycyclohexyl]oxyoxan-3-yl]iminoacetic acid] the “inhibition of Chit1, expressed as % of the inhibitory activity of 200 uM pentoxifylline” value (recombinant Chit1) was “more than 45%”, the “ability to inhibit Chit1 (chitotriosidase) activity” value (“ability to inhibit Chit1” below) (recombinant Chit1) was “can inhibit Chit1” and the “ability to inhibit Chit1” value (recombinant Chit1; listed as Kasugamycin) was “unique in its ability to inhibit chitotriosidase activity”. The “ability to inhibit Chit1” value (recombinant Chit1; listed as kasugamcyin) was “unique amongst aminoglycosides in its ability to inhibit Chit 1”, the “matrix gene expression (RT-PCR on lung lysate)” value ([1]; after bleomycin, kasugamycin 50 mg/Kg I.P.) was “decreased” and the “pulmonary fibrosis / total lung collagen” value [1] was “reduction of collagen; also recorded: potent inhibitor of fibrosis; also recorded: reduced pulmonary fibrosis”. The “pulmonary fibrosis / total lung collagen” value ([1]; listed as Kasugamycin) was “decreased pulmonary fibrosis”, the lung histology ([1]; bleomycin I.P. model (FIG. 7)) was “affect on histology” and the BAL cell recovery [2] was “affected BAL cell recovery”. For the same compound, the “fibrosis / lung collagen” value [2] was “reduced lung collagen; also recorded: potent inhibitor of fibrosis”, the inflammation ([3]; transgenic TGFβ1 stimulation (FIG. 10)) was “inhibited inflammation” and the fibrosis [3] was “potent inhibitor of fibrosis”. For the same compound, the fibrosis ([3]; listed as Kasuagmyicn) was “inhibited”, the “fibrosis (collagen accumulation)” value [4] was “potent inhibitor of fibrosis” and the “fibrosis (collagen accumulation)” value ([4]; listed as Kasugamycin) was “reduced fibrosis”. The “fibrosis (collagen count)” value [5] was “reduced fibrosis” and the water solubility [6] was “water soluble”.
